Patent publication US6737383B1, “Herbicidal oxadiazolidines” (priority 1999, dated 2004)

Assays:
cocklebur = experiment: Test B pre/postemergence cocklebur; format: in vivo, Xanthium strumarium
Outline: (§1)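 Herbicidal effect was estimated by eye on a ten-point control scale after plants spent twelve to sixteen days in a greenhouse following soil or foliar treatment. Foliar sprays targeted plants at one to four leaves; all doses were formulated in a non-phytotoxic solvent with surfactant.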

corn = experiment: Test B pre/postemergence corn; format: in vivo, Zea mays
Outline: as §1

rape = experiment: Test B pre/postemergence rape; format: in vivo, Brassica napus
Outline: as §1

pigweed = experiment: Test B pre/postemergence pigweed; format: in vivo, Amaranthus retroflexus
Outline: as §1

wild oat = experiment: Test B pre/postemergence wild oat; format: in vivo, Avena fatua
Outline: as §1

soybean = experiment: Test B pre/postemergence soybean; format: in vivo, Glycine max
Outline: as §1

surinam grass = experiment: Test B pre/postemergence surinam grass; format: in vivo, Brachiaria decumbens
Outline: as §1

velvetleaf = experiment: Test B pre/postemergence velvetleaf; format: in vivo, Abutilon theophrasti
Outline: as §1

morningglory = experiment: Test B pre/postemergence morningglory; format: in vivo, Ipomoea hederacea
Outline: as §1

sugar beet = experiment: Test B pre/postemergence sugar beet; format: in vivo, Beta vulgaris
Outline: as §1

crabgrass = experiment: Test B pre/postemergence crabgrass; format: in vivo, Digitaria sanguinalis
Outline: as §1

rice = experiment: Test B flood test rice; format: in vivo, Oryza sativa
Outline: (§2)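 Plants were grown to the 2-leaf stage before treatment with test chemical, then held in a greenhouse for twelve to sixteen days. Injury was visually rated against untreated controls on a 0–10 scale, where 0 is no effect and 10 is complete control.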

giant foxtail = experiment: Test B pre/postemergence giant foxtail; format: in vivo, Setaria faberii
Outline: as §1

bamyardgrass = experiment: Test B flood test barnyardgrass; format: in vivo, Echinochloa crus-galli
Outline: as §2

duck salad = experiment: Test B flood test duck salad; format: in vivo, Heteranthera limosa
Outline: as §2

blackgrass = experiment: Test B pre/postemergence blackgrass; format: in vivo, Alopecurus myosuroides
Outline: as §1

[1] = Postemergence, Rate 125 g/ha, scale of 0 to 10 where 0 is no effect and 10 is complete control
[2] = Postemergence, Rate 250 g/ha, scale of 0 to 10, 0 is no effect, 10 is complete control
[3] = Postemergence, Rate 500 g/ha, scale of 0 to 10 where 0 is no effect and 10 is complete control
[4] = Postemergence, Rate 1000 g/ha, scale 0 to 10 (0 no effect, 10 complete control)
[5] = Preemergence, Rate 125 g/ha, scale of 0 to 10 where 0 is no effect and 10 is complete control
[6] = Preemergence, Rate 500 g/ha, scale of 0 to 10 where 0 is no effect and 10 is complete control
[7] = Rate 1000 g/ha, Preemergence, scale 0 to 10 (0 no effect, 10 complete control)
[8] = Pre-emergence, Rate 1000 g/ha, scale 0 to 10 (0 no effect, 10 complete control)
[9] = Rate 125 g/ha, under heading Pre-emergence, flood test species, visual evaluation after twelve to sixteen days
[10] = Rate 250 g/ha, Pre-emergence (flood test species), scale 0 to 10, 0 is no effect, 10 is complete control
[11] = Rate 500 g/ha, Pre-emergence section of Table B, 0 to 10 scale (0 no effect, 10 complete control)

## CCOP(=O)(Cn1c(=O)on(C(=O)N(c2ccc(Cl)cc2)C(C)C)c1=O)OCC [Compound 599]
cocklebur; [1]
  Plant response rating, Cocklebur: 0
cocklebur; [2]
  Cocklebur plant response rating: 0
cocklebur; [3]
  Plant response rating, Cocklebur: 0
cocklebur; [4]
  Cocklebur plant response rating: 0
cocklebur; [5]
  Cocklebur plant response rating: 0
cocklebur; Preemergence, Rate 250 g/ha
  Cocklebur plant response rating (0 to 10 scale): 0
cocklebur; [6]
  Plant response rating, Cocklebur: 0
cocklebur; [7]
  Plant response rating, Cocklebur: 3
corn; [1]
  Plant response rating, Corn: 0
corn; [2]
  Corn plant response rating: 0
corn; [3]
  Plant response rating, Corn: 0
corn; [4]
  Corn plant response rating: 0
corn; [5]
  Corn plant response rating: 0
corn; Preemergence, Rate 250 g/ha
  Corn plant response rating (0 to 10 scale): 0
corn; [6]
  Plant response rating, Corn: 0
corn; [7]
  Plant response rating, Corn: 0
rape; [1]
  Plant response rating, Rape: 0
rape; [2]
  Rape plant response rating: 0
rape; [3]
  Plant response rating, Rape: 0
rape; [4]
  Rape plant response rating: 0
rape; [5]
  Rape plant response rating: 0
rape; [6]
  Plant response rating, Rape: 0
rape; [7]
  Plant response rating, Rape: 3
pigweed; [1]
  Plant response rating, Redroot pigweed: 0
pigweed; [2]
  Redroot pigweed plant response rating: 0
pigweed; [3]
  Plant response rating, Redroot pigweed: 0
pigweed; [4]
  Redroot pigweed plant response rating: 0
pigweed; [5]
  Redroot pigweed plant response rating: 0
pigweed; [6]
  Plant response rating, Redroot pigweed: 0
pigweed; [7]
  Plant response rating, Redroot pigweed: 4
Wild oat; [1]
  Plant response rating, Wild oats: 0
Wild oat; [2]
  Wild oats plant response rating: 0
Wild oat; [3]
  Plant response rating, Wild oats: 0
Wild oat; [4]
  Wild oats plant response rating: 0
Wild oat; [5]
  Wild oats plant response rating: 0
Wild oat; [6]
  Plant response rating, Wild oats: 0
Wild oat; [7]
  Plant response rating, Wild oats: 0
soybean; [1]
  Plant response rating, Soybean: 2
soybean; [2]
  Soybean plant response rating: 2
soybean; [3]
  Plant response rating, Soybean: 2
soybean; [4]
  Soybean plant response rating: 4
soybean; [5]
  Soybean plant response rating: 0
soybean; [6]
  Plant response rating, Soybean: 0
soybean; [7]
  Plant response rating, Soybean: 0
Surinam grass; [1]
  Plant response rating, B. signalgrass: 0
Surinam grass; [2]
  B. signalgrass plant response rating: 0
Surinam grass; [3]
  Plant response rating, B. signalgrass: 0
Surinam grass; [4]
  B. signalgrass plant response rating: 0
Surinam grass; [5]
  B. signalgrass plant response rating: 2
Surinam grass; Preemergence, Rate 250 g/ha
  B. signalgrass plant response rating (0 to 10 scale, 0 is no effect, 10 is complete control): 2
Surinam grass; [6]
  B. signalgrass plant response rating: 3
Surinam grass; [7]
  Plant response rating, B. signalgrass: 3
velvetleaf; [1]
  Plant response rating, Velvetleaf: 0
velvetleaf; [2]
  Velvetleaf plant response rating: 0
velvetleaf; [3]
  Plant response rating, Velvetleaf: 0
velvetleaf; [4]
  Velvetleaf plant response rating: 3
velvetleaf; [5]
  Velvetleaf plant response rating: 0
velvetleaf; [6]
  Plant response rating, Velvetleaf: 0
velvetleaf; [7]
  Plant response rating, Velvetleaf: 0
morningglory; [1]
  Plant response rating, Morningglory: 1
morningglory; [2]
  Morningglory plant response rating: 1
morningglory; [3]
  Plant response rating, Morningglory: 6
morningglory; [4]
  Morningglory plant response rating: 6
morningglory; [5]
  Morningglory plant response rating: 0
morningglory; [6]
  Plant response rating, Morningglory: 0
morningglory; [7]
  Plant response rating, Morningglory: 0
Sugar beet; [1]
  Plant response rating, Sugarbeets: 0
Sugar beet; [2]
  Sugarbeets plant response rating: 0
Sugar beet; [3]
  Plant response rating, Sugarbeets: 0
Sugar beet; [4]
  Sugarbeets plant response rating: 0
Sugar beet; [5]
  Sugarbeets plant response rating: 0
Sugar beet; [7]
  Plant response rating, Sugarbeets: 2
crabgrass; [1]
  Plant response rating, Crabgrass: 0
crabgrass; [2]
  Crabgrass plant response rating: 0
crabgrass; [3]
  Plant response rating, Crabgrass: 0
crabgrass; [4]
  Crabgrass plant response rating: 0
crabgrass; [5]
  Crabgrass plant response rating: 3
crabgrass; [6]
  Plant response rating, Crabgrass: 8
crabgrass; [7]
  Plant response rating, Crabgrass: 8
rice; [8]
  Rice plant response rating: 0
rice; [9]
  Rice plant response rating (0 to 10 scale, 0 is no effect, 10 is complete control): 0
rice; [10]
  Rice plant response rating: 0
rice; [11]
  Rice plant response rating: 0
Giant foxtail; [1]
  Plant response rating, Giant foxtail: 0
Giant foxtail; [2]
  Giant foxtail plant response rating: 0
Giant foxtail; [3]
  Plant response rating, Giant foxtail: 0
Giant foxtail; [4]
  Giant foxtail plant response rating: 4
Giant foxtail; [5]
  Giant foxtail plant response rating: 9
Giant foxtail; [6]
  Plant response rating, Giant foxtail: 10
Giant foxtail; [7]
  Plant response rating, Giant foxtail: 10
bamyardgrass; [8]
  Barnyardgrass plant response rating: 0
bamyardgrass; [9]
  Barnyardgrass plant response rating (0 to 10 scale, 0 is no effect, 10 is complete control): 0
bamyardgrass; [10]
  Barnyardgrass plant response rating: 0
bamyardgrass; [11]
  Barnyardgrass plant response rating: 0
Duck salad; [8]
  Ducksalad plant response rating: 0
Duck salad; [9]
  Ducksalad plant response rating (0 to 10 scale, 0 is no effect, 10 is complete control): 0
Duck salad; [10]
  Ducksalad plant response rating: 0
Duck salad; [11]
  Ducksalad plant response rating: 0
blackgrass; [1]
  Plant response rating, Blackgrass: 0
blackgrass; [2]
  Blackgrass plant response rating: 0
blackgrass; [3]
  Plant response rating, Blackgrass: 0
blackgrass; [4]
  Blackgrass plant response rating: 6
blackgrass; [5]
  Blackgrass plant response rating: 0
blackgrass; Preemergence, Rate 250 g/ha
  Blackgrass plant response rating (0 to 10 scale): 3
blackgrass; [6]
  Blackgrass plant response rating: 6
blackgrass; [7]
  Plant response rating, Blackgrass: 8
